According to the NIST ThermoML archive (doi:10.1021/acs.jced.8b00236):
Numbers after ± are expanded uncertainties.

Experiment: mn = molality of the nth substance listed, in mol/kg
Details: 75 kPa, Liquid; for viscosity: Capillary tube (Ostwald / Ubbelohde) method; for speed of sound: Frequency=3 MHz, Single path-length method; for mass density: Vibrating tube method

NCCCCC(=O)O [5-aminovaleric acid] + O
Details	mass density [kg/m3]	speed of sound [m/s]	viscosity [mPa·s]
288.15 K, m1 = 0.1389	1003.29 ± 0.3	1481 ± 4	1.215 ± 0.025
288.15 K, m1 = 0.2789	1007.34 ± 0.3	1495.3 ± 4	1.293 ± 0.027
288.15 K, m1 = 0.4193	1011.22 ± 0.3	1509.3 ± 4	1.38 ± 0.029
288.15 K, m1 = 0.5604	1014.96 ± 0.3	1523 ± 4	1.473 ± 0.031
288.15 K, m1 = 0.7025	1018.54 ± 0.3	1536.5 ± 4	1.575 ± 0.033
288.15 K, m1 = 0.8448	1021.98 ± 0.31	1549.8 ± 4	1.685 ± 0.035
293.15 K, m1 = 0.1389	1002.34 ± 0.3	1496.8 ± 4	1.073 ± 0.022
293.15 K, m1 = 0.2789	1006.33 ± 0.3	1510.7 ± 4	1.135 ± 0.024
293.15 K, m1 = 0.4193	1010.16 ± 0.3	1524.2 ± 4	1.208 ± 0.025
293.15 K, m1 = 0.5604	1013.85 ± 0.3	1537.5 ± 4	1.289 ± 0.027
293.15 K, m1 = 0.7025	1017.4 ± 0.3	1550.4 ± 4	1.376 ± 0.029
293.15 K, m1 = 0.8448	1020.81 ± 0.31	1562.9 ± 4	1.477 ± 0.031
298.15 K, m1 = 0.1389	1001.15 ± 0.3	1510.3 ± 4	0.946 ± 0.02
298.15 K, m1 = 0.2789	1005.16 ± 0.3	1523.7 ± 4	1.003 ± 0.021
298.15 K, m1 = 0.4193	1009.06 ± 0.3	1536.7 ± 4	1.063 ± 0.022
298.15 K, m1 = 0.5604	1012.86 ± 0.3	1549.3 ± 4	1.143 ± 0.024
298.15 K, m1 = 0.7025	1016.56 ± 0.3	1561.6 ± 4	1.215 ± 0.025
298.15 K, m1 = 0.8448	1020.15 ± 0.31	1573.5 ± 4	1.301 ± 0.027
303.15 K, m1 = 0.1389	999.722 ± 0.3	1522.1 ± 4	0.853 ± 0.018
303.15 K, m1 = 0.2789	1003.72 ± 0.3	1534.9 ± 4	0.893 ± 0.019
303.15 K, m1 = 0.4193	1007.61 ± 0.3	1547.4 ± 4	0.95 ± 0.02
303.15 K, m1 = 0.5604	1011.41 ± 0.3	1559.5 ± 4	1.013 ± 0.021
303.15 K, m1 = 0.7025	1015.13 ± 0.3	1571.3 ± 4	1.077 ± 0.022
303.15 K, m1 = 0.8448	1018.76 ± 0.31	1582.7 ± 4	1.158 ± 0.024
308.15 K, m1 = 0.1389	998.079 ± 0.3	1532.3 ± 4	0.762 ± 0.016
308.15 K, m1 = 0.2789	1002.05 ± 0.3	1544.6 ± 4	0.8 ± 0.017
308.15 K, m1 = 0.4193	1005.91 ± 0.3	1556.5 ± 4	0.848 ± 0.018
308.15 K, m1 = 0.5604	1009.68 ± 0.3	1568.2 ± 4	0.9 ± 0.019
308.15 K, m1 = 0.7025	1013.37 ± 0.3	1579.4 ± 4	0.957 ± 0.02
308.15 K, m1 = 0.8448	1016.96 ± 0.31	1590.2 ± 4	1.019 ± 0.021
